Here are results for seven molecules from paper PMC3385710, “Assessment of 5-HT7 Receptor Agonists Selectivity Using Nociceptive and Thermoregulation Tests in Knockout versus Wild-Type Mice” (Advances in Pharmacological Sciences, 2012).

The subject of test [1] is rats. Details: method as in PMID 16098671. The conditions noted are these: cited from earlier work.
The test system of test [2] is wild-type mice. The test is described as follows: Formalin test in wild-type mice. It counts as in vivo. The conditions noted are these: 15-30 min after formalin, versus vehicle. From the text:
(§1) Formaldehyde (37 wt.% solution) was purchased from Panreac (Spain) and dissolved in physiological saline. Drugs used for treatments were AS-19 (dimethyl-[5-(1,3,5-tri-methyl-1H-pyrazol-4-yl)-1,2,3,4-tetrahydro-naphthalen-2(S)-yl]-amine), E-55888 (dimethyl-{2-[3-(1,3,5-trimethyl-1H-pyrazol-4-yl)-phenyl]-ethyl}-amine dihydrochloride), and E-57431 (2-(2-(dimethylamino)ethyl)-4-(1,3,5-tri-methyl-1H-pyrazol-4-yl)phenol). AS-19 is a potent selective 5-HT7 receptor agonist commercially available from Tocris Bioscience (UK), whereas E-55888 and E-57431 are 5-HT7 receptor agonists developed by ESTEVE Laboratories (Barcelona, Spain). All three 5-HT7 receptor agonists were synthesized for the purpose of this study at ESTEVE, dissolved in aqueous solutions containing 0.5% (hydroxypropyl) methyl cellulose (Sigma-Aldrich, Spain) and administered in a volume of 5 ml/kg through the subcutaneous (s.c.) route. Doses of drugs (referred to their salt forms) and time of evaluation were selected based on previous studies and on pilot experiments in models used in this study. All treatments were performed under blind conditions in independent groups of mice and behavioral evaluation was done 30 min after drug administration.
(§2) Formalin (20 μL of a 2.5% formalin solution; 0.92% of formaldehyde) was injected into the dorsal surface on the right hind paw, as previously described. […] Mice were placed on a paper surface surrounded by a plexiglas cylinder (20 × 25 cm) and the time spent licking and biting the injected paw was measured using a chronometer. A time course of the licking/biting behaviors was monitored during 45 minutes after formalin injection to evaluate possible differences between genotypes. Drug effects were quantified at 0–5 min (phase I) and 15–30 min (phase II) after formalin injection, two periods of time in which the formalin-induced licking and biting time was high enough to test antinociceptive effects of drugs.

For test [3], the system named is 5-HT7 receptor knockout mice. The test is described as follows: Formalin test in 5-HT7 receptor knockout mice. The conditions noted are these: 15-30 min after formalin, versus vehicle. It counts as in vivo.
Source text: as §1, §2

The test system of test [4] is wild-type mice. The test is described as follows: Rectal (body) temperature in wild-type mice. It counts as in vivo. The conditions noted are these: for Effect on body temperature: 30 min after administration.
Source text: as §1
(§3) The body temperature was recorded using a precision thermometer (YSI 4600) equipped with a flexible probe (YSI 402). This probe was lubricated with vaseline and inserted 2 cm into the rectum. Temperature recordings were made 20 s following insertion of the probe, as previously described.

Test [5] relates to 5-HT7 receptor knockout mice. The test is described as follows: Rectal (body) temperature in 5-HT7 receptor knockout mice. It counts as in vivo. The conditions noted are these: for Effect on body temperature: 30 min after administration.
Source text: as §1, §3

The subject of test [6] is h5-HT1A. The conditions noted are these: cited from earlier work; for Affinity ratio versus 5-HT7 receptors (Ki h5-HT1A/Ki 5-HT7): number-fold higher for 5-HT7 than for the tested receptor; for Ki: radioligand binding, read-out: Affinity (Ki (nM)) h5-HT1A.
In test [7] the test system is r5-HT1B. Set-up: method as in PMID 19118950, PMID 20399562. The conditions noted are these: cited from earlier work; for Ki: radioligand binding, read-out: Affinity (Ki (nM)) r5-HT1B.
Test [8] has as its system h5-HT1D. The conditions noted are these: cited from earlier work; for Affinity ratio versus 5-HT7 receptors (Ki h5-HT1D/Ki 5-HT7): number-fold higher for 5-HT7 than for the tested receptor; for Ki: radioligand binding, read-out: Affinity (Ki (nM)) h5-HT1D.
The target of test [9] is h5-HT2A. Set-up: method as in PMID 19118950, PMID 20399562. The conditions noted are these: cited from earlier work; for Ki: radioligand binding, read-out: Affinity (Ki (nM)) h5-HT2A.
Test [10] deals with h5-HT2B. Details: method as in PMID 19118950, PMID 20399562. The conditions noted are these: radioligand binding; read-out: Affinity (Ki (nM)) h5-HT2B; cited from earlier work.
In test [11] the target is h5-HT2C. Set-up: method as in PMID 19118950, PMID 20399562. The conditions noted are these: radioligand binding; read-out: Affinity (Ki (nM)) h5-HT2C; cited from earlier work.
Test [12] has as its target h5-HT3. Details: method as in PMID 19118950, PMID 20399562. The conditions noted are these: radioligand binding; read-out: Affinity (Ki (nM)) h5-HT3; cited from earlier work.
For test [13], the target named is gp5-HT4. Details: method as in PMID 19118950, PMID 20399562. The conditions noted are these: radioligand binding; read-out: Affinity (Ki (nM)) gp5-HT4; cited from earlier work.
The subject of test [14] is h5-HT5A. Details: method as in PMID 19118950, PMID 20399562. The conditions noted are these: cited from earlier work; for Ki: radioligand binding, read-out: Affinity (Ki (nM)) h5-HT5A.
For test [15], the target named is h5-HT6. Details: method as in PMID 19118950, PMID 20399562. The conditions noted are these: radioligand binding; read-out: Affinity (Ki (nM)) h5-HT6; cited from earlier work.
In test [16] the target is h5-HT7. Details: method as in PMID 19118950, PMID 20399562. The conditions noted are these: radioligand binding; read-out: Affinity (Ki (nM)) h5-HT7; cited from earlier work.
Test [17] deals with h5-HT transporter (SERT). Details: method as in PMID 19118950, PMID 20399562. The conditions noted are these: radioligand binding; read-out: Affinity (Ki (nM)) h5-HT transporter (SERT); cited from earlier work.
Test [18] has as its target Other receptors. Set-up: method as in PMID 19118950, PMID 20399562. The conditions noted are these: panel of other receptors assayed; read-out: Affinity (Ki (nM)) Other receptors; cited from earlier work.
For test [19], the system named is h5-HT7. Details: method as in PMID 19118950, PMID 20399562. The conditions noted are these: HEK-293F/h5-HT7 cells, cited from earlier work; for EC50: read-out: EC50, cAMP formation; for Maximal effect (E max), cAMP formation: relative to that of 5-HT.
The target in test [20] is h5-HT4e. Details: method as in PMID 19118950, PMID 20399562. The conditions noted are these: radioligand binding; read-out: Affinity (Ki (nM)) h5-HT4e; cited from earlier work.
In test [21] the test system is dopamine D2 receptor. Set-up: method as in PMID 17649988. The conditions noted are these: cited from earlier work.
For test [22], the system named is 5-HT1B, 5-HT2B, 5-HT2C, and 5-HT5A. Details: method as in PMID 20600619. The conditions noted are these: cited from earlier work.
Test [23] deals with 5-HT1A. Set-up: method as in PMID 14741267. The conditions noted are these: cited from earlier work.
The mark [24] stands for this setting: number-fold higher for 5-HT7 than for the tested receptor.

The structures appear in SMILES notation.

Consider `NCCc1c[nH]c2ccc(C(N)=O)cc12` [5-carboxamidotryptamine], for which the “Phase II formalin-induced nociceptive behavior” value in test [1] (intraplantar or spinal administration) was “increased”.

`Cc1nn(C)c(C)c1-c1cccc2c1CC[C@H](N(C)C)C2` [AS-19, dimethyl-[5-(1,3,5-tri-methyl-1H-pyrazol-4-yl)-1,2,3,4-tetrahydro-naphthalen-2(S)-yl]-amine, reference compound]: in test [2] (10 mg/kg s.c.), the “Formalin phase II licking/biting time” value is listed as “significant reduction”. In addition, in test [3] (10 mg/kg s.c.), the “Formalin phase II licking/biting time significantly reduced” value is reported as “not”. For the same molecule, the “Effect on body temperature” value is recorded as “did not significantly change” in test [4] (10 mg/kg s.c.), “significantly reduced” in [4] (20 mg/kg s.c.), “did not significantly change” in test [5] (10 mg/kg s.c.) and “significantly reduced” in test [5] (20 mg/kg s.c.). The Body temperature reduction in test [4] (20 mg/kg s.c.) turned out to be 3.8 °C; in [5] (20 mg/kg s.c.), 2.4 °C. In test [6], the “Affinity ratio versus 5-HT7 receptors (Ki h5-HT1A/Ki 5-HT7)” value is on record as 149.5 x. Also, the Ki was 89.7 nM in test [6]; 490 nM in test [7]; 6.6 nM in test [8]; greater than 1000 nM in test [9]; greater than 1000 nM in [10]; greater than 1000 nM in [11]. Also, the Ki is greater than 1000 nM in test [12]; greater than 1000 nM in test [13]; 98.5 nM in test [14]; greater than 1000 nM in [15]; 0.6 nM in [16]; greater than 1000 nM in test [17]. In addition, in test [18], the Ki was greater than 1000 nM. Also, in test [7] (setting [24]), the “Affinity ratio versus 5-HT7 receptors (Ki r5-HT1B/Ki 5-HT7)” value is reported as 816.6 x. The “Affinity for 5-HT7 higher than for 5-HT1D” value in test [8] is on record as 11 fold. Further, the “Affinity ratio versus 5-HT7 receptors (Ki h5-HT1D/Ki 5-HT7)” value in [8] was 11 x. In test [14] (setting [24]), the “Affinity ratio versus 5-HT7 receptors (Ki h5-HT5A/Ki 5-HT7)” value is listed as 164.2 x. Moreover, in test [19], the EC50 was 9 ± 1 nM. The “Maximal effect (E max), cAMP formation” value in test [19] is given as 77%.

As for `Cc1nn(C)c(C)c1-c1cccc(CCN(C)C)c1.Cl.Cl` [E-55888, dimethyl-{2-[3-(1,3,5-trimethyl-1H-pyrazol-4-yl)-phenyl]-ethyl}-amine dihydrochloride], in test [2] (20 mg/kg s.c.), the “Formalin phase II licking/biting time” value is reported as “significant reduction”. In [3] (20 mg/kg s.c.), the “Formalin phase II licking/biting time significantly reduced” value is reported as “not”. Moreover, the “Effect on body temperature” value in test [4] (20 mg/kg s.c.) and in test [5] (20 mg/kg s.c.) was “did not significantly change” each time. Besides, the “Affinity for 5-HT7 higher than for 5-HT1A” value in [6] is on record as 280 fold. For the same molecule, the “Affinity ratio versus 5-HT7 receptors (Ki h5-HT1A/Ki 5-HT7)” value in [6] is listed as 280 x. For the same molecule, the Ki in [6] was 700 nM; in [7], greater than 1000 nM; in [8], greater than 1000 nM; in [9] it was greater than 1000 nM; in [10], greater than 1000 nM; in test [11], greater than 1000 nM. In addition, the Ki is greater than 1000 nM in test [12]; greater than 1000 nM in test [20]; greater than 1000 nM in test [14]; greater than 1000 nM in test [15]; 2.5 nM in test [16]; greater than 1000 nM in test [17]. Besides, in test [18], the Ki was greater than 1000 nM. Also, the EC50 in [19] is 16 ± 1 nM. Further, in test [19], the “Maximal effect (E max), cAMP formation” value is 99 ± 1%.

As for `Cc1nn(C)c(C)c1-c1ccc(O)c(CCN(C)C)c1` [E-57431, 2-(2-(dimethylamino)ethyl)-4-(1,3,5-tri-methyl-1H-pyrazol-4-yl)phenol], in test [2] (10 mg/kg s.c.), the “Formalin phase II licking/biting time” value was “significant reduction”. For the same molecule, the “Formalin phase II licking/biting time significantly reduced” value in [3] (10 mg/kg s.c.) is on record as “not”. The “Effect on body temperature” value in test [4] (10 mg/kg s.c.) was “did not significantly change”; in [4] (20 mg/kg s.c.), “significantly reduced”; in test [5] (10 mg/kg s.c.), “did not significantly change”; in test [5] (20 mg/kg s.c.), “significantly reduced”. Also, the Body temperature reduction in test [4] (20 mg/kg s.c.) was 1.1 °C; in test [5] (20 mg/kg s.c.), 2.3 °C. Also, the Ki was greater than 1000 nM in [6]; greater than 1000 nM in test [7]; 53 nM in [8]; 560 nM in test [9]; greater than 1000 nM in test [10]; greater than 1000 nM in test [11]. For the same molecule, the Ki is greater than 1000 nM in test [12]; greater than 1000 nM in test [20]; greater than 1000 nM in test [13]; greater than 1000 nM in [14]; greater than 1000 nM in test [15]; 0.47 nM in test [16]. Moreover, the Ki in test [17] and in [18] was greater than 1000 nM each time. The “Affinity for 5-HT7 higher than for 5-HT1D” value in test [8] is recorded as 112.7 fold. Further, in test [8], the “Affinity ratio versus 5-HT7 receptors (Ki h5-HT1D/Ki 5-HT7)” value is on record as 112.7 x. Further, the “Affinity ratio versus 5-HT7 receptors (Ki h5-HT2A/Ki 5-HT7)” value in test [9] (setting [24]) is listed as 1191.5 x. Also, the EC50 in [19] is 21.5 ± 1 nM. The “Maximal effect (E max), cAMP formation” value in test [19] is recorded as 94.5 ± 1%.

In the case of `N#Cc1ccc(CNC(=O)CCCCCN2CCN(c3ccccc3-c3ccccc3)CC2)cc1` [LP-211], the “Affinity for 5-HT7 higher than for dopamine D2 receptor” value in test [21] was 33 fold. The “Affinity for 5-HT7 higher than for 5-HT1B, 5-HT2B, 5-HT2C, and 5-HT5A” value in test [22] was 5-14 fold.

As to `CN(C)CCSc1cccc(-c2ccccc2)n1` [MSD-5a], in [23], the “Affinity for 5-HT7 higher than for 5-HT1A” value is 28.6 fold.

For the molecule `CC1CCN(CC[C@H]2CCCN2S(=O)(=O)c2cccc(O)c2)CC1` [SB-269970, (R)-3-(2-(2-(4-methylpiperidin-1-yl)-ethyl)pyrrolidine-1-sulfonyl)phenol], the “Effect on 5-carboxamidotryptamine-induced increase of phase II formalin nociceptive behavior” value in [1] is on record as “significantly reversed”.

By Ki is commonly meant the equilibrium dissociation constant of an inhibitor or competing ligand from its target. The EC50 is the concentration giving half of the maximal effect.
